Where a name gives a salt, the structure may show the parent alone.
Target: T1, Calpain I (Homo sapiens, UniProt P07384)
T1 sequence (P07384 1-714): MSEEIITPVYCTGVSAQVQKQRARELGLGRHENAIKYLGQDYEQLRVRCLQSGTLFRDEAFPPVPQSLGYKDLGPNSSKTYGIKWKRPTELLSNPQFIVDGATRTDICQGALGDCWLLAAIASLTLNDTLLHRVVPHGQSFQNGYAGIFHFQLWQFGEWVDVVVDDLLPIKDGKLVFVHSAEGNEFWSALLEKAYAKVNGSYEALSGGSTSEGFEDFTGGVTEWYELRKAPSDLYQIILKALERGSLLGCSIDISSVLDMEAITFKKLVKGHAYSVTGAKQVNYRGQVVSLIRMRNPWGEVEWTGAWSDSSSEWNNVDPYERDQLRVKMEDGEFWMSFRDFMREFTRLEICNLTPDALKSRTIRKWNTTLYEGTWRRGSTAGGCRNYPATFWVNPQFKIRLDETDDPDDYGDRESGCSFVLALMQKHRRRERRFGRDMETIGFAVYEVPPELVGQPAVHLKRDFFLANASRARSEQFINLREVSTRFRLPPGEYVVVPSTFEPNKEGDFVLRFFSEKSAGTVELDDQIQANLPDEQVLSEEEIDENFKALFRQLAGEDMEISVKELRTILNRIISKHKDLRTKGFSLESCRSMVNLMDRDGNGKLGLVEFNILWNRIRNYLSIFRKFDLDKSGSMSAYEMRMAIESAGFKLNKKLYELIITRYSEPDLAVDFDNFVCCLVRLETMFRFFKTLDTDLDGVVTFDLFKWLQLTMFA
T1 sequence (P04632 1-268 partner): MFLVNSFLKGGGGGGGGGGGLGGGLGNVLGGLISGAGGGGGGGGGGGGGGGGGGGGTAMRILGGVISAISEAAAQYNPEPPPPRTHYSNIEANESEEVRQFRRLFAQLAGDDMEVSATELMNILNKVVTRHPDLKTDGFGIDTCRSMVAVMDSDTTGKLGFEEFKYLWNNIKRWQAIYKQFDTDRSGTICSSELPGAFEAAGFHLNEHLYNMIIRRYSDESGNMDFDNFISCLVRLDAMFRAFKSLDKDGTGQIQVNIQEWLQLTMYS
Assay: Inhibition and rate of inactivation of cysteine protease (calpain I) activity, Succ-Leu-Tyr-MNA substrate hydrolysis
Details: for inhibition at 0.1 µM: read-out: % Inhib. @ 0.1 uM; for kinact/KI: read-out: kobs/I x 10^-3 M^-1s^-1
Experimental: To evaluate inhibitory activity, stock solutions (40 times concentrated) of each compound to be tested were prepared in 100% anhydrous DMSO and 5 µl of each inhibitor preparation were aliquoted into each of three wells of a 96 well plate. […] To start the reaction, 20 µl of 50 mM CaCl2 in assay buffer was added to all wells of the plate, excepting three, which were used as background signal baseline controls. Substrate hydrolysis was monitored every 5 minutes for a total of 30 minutes. Substrate hydrolysis in the absence of inhibitor was linear for up to 15 minutes.
Inhibition of calpain I activity was calculated as the percent decrease in the rate of substrate hydrolysis in the presence of inhibitor (vi) relative to the rate in its absence (vo). Comparison between vo and vi was made within the linear range for substrate hydrolysis. […] Apparent second order rate constants were determined from analysis of reaction progress curves under pseudo-first order conditions. Each determination represents the mean of three or more independent single cuvette analyses continually monitored via a Perkin-Elmer LS50B spectrofluorimeter.

Molecule | inhibition at 0.1 µM [%] | kinact/KI [M⁻¹ s⁻¹] | % Inhib. @ 0.1 uM (0.1 uM compound, percent decrease in rate of substrate hydrolysis relative to no inhibitor) [%] | kobs/I x 10^-3 M^-1s^-1 (apparent second order rate constant of inactivation from reaction progress curves under pseudo-first order conditions, mean of three or more determinations)
CC(C)C[C@H](NC(=O)OCc1ccccc1)C(=O)N[C@@H](Cc1ccccc1)C(=O)COP(=O)(OCCc1ccccc1)OCCc1ccccc1 [Example 46, Diphenethyl (3S)-[3-[(N-Benzyloxycarbonyl-L-leucyl)amino]-2-oxo-4-phenylbutyl] phosphate] | 99 | 380000 | – | –
(3S)-2-[3-[(N-Benzyloxycarbonyl-L-leucyl)amino]-2-oxo-4-phenylbutyl] 1H-phosphindoline 2-oxide [Example 62] | – | – | 34 | –
CC(C)C[C@H](NC(=O)OCc1ccccc1)C(=O)N[C@@H](Cc1ccccc1)C(=O)COP1(=O)CC=CC1 [Example 63, (3S)-1-[[3-[(N-Benzyloxycarbonyl-L-leucyl)amino]-2-oxo-4-phenylbutyl]oxy]phosphol-3-ene 1-oxide] | 22 | – | – | –
CC(C)C[C@H](NC(=O)OCc1ccccc1)C(=O)N[C@@H](Cc1ccccc1)C(=O)COP(=O)(CCc1ccccc1)CCc1ccccc1 [Example 54, (3S)-[3-[(N-Benzyloxycarbonyl-L-leucyl)amino]-2-oxo-4-phenylbutyl] bis(2-phenylethyl)phosphinate] | 15 | 8000 | – | –
CCCCOP(=O)(OCCCC)C(=O)[C@H](CC(C)C)NC(=O)[C@H](CC(C)C)NC(=O)OCc1ccccc1 [Example 66, Dibutyl N-Benzyloxycarbonyl-L-leucyl-L-leucylphosphonate] | 0 | – | – | –
CC(C)C[C@H](NC(=O)OCc1ccccc1)C(=O)N[C@@H](Cc1ccccc1)C(=O)COP(=O)(OCCN1CCOCC1)c1ccccc1 (stereo partly drawn) [Example 50, 2-(Morpholin-4-yl)ethyl (3S)-[3-[(N-benzyloxycarbonyl-L-leucyl)amino]-2-oxo-4-phenylbutyl] phenylphosphonate hydrochloride] | – | 70000 | – | –
CC(C)C[C@H](NC(=O)OC(C)(C)C)C(=O)N[C@@H](Cc1ccccc1)C(=O)COP(=O)(OCc1ccccc1)OCc1ccccc1 [Example 35, Dibenzyl (3S)-[3-[(N-t-Butoxycarbonyl-L-leucyl)amino]-2-oxo-4-phenylbutyl] phosphate] | 100 | 242000 | – | –
CCP(=O)(OCC(=O)[C@H](Cc1ccccc1)NC(=O)[C@H](CC(C)C)NC(=O)OCc1ccccc1)c1ccccc1 (stereo partly drawn) [Example 60, (3S)-[3-[(N-Benzyloxycarbonyl-L-leucyl)amino]-2-oxo-4-phenylbutyl] (ethyl) (phenyl)phosphinate] | 51 | – | – | 6 x 10^-3 M^-1s^-1
CC(C)C[C@H](NC(=O)OCc1ccccc1)C(=O)N[C@@H](Cc1ccccc1)C(=O)COP(=O)(OCCN1CCCC1=O)c1ccccc1 (stereo partly drawn) [Example 51, (3S)-[3-[(N-Benzyloxycarbonyl-L-leucyl)amino]-2-oxo-4-phenylbutyl] 2-(2-oxopyrrolidin-1-yl)ethyl phenylphosphonate] | – | 26000 | – | –
